Test results from patent US12404295B2, “(Hetero)aryl-methyl-thio-beta-D-galactopyranoside derivatives” (Idorsia Pharmaceuticals Ltd, priority 2019, dated 2025).
Read-outs that look alike come from different tables or passages of the source.

Experiments:
human Gal-1 (hGal-1) = human Gal-1 (hGal-1) (Homo sapiens (Human), UniProt P09382); experiment: competitive binding assay: biotinylated hGal-1 binding to microplate-adsorbed asialofetuin (ASF); conditions: Table 15; read-out: IC50 (Galectin-1 inhibition)
Chain of human Gal-1 (hGal-1) (P09382 whole entry): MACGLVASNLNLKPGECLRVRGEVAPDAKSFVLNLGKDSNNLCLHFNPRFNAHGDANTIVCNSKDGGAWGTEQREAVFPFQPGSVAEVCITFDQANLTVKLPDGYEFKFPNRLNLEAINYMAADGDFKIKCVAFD
In short: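 Biotinylated human Gal-1 (300-1000 ng/mL) competes with serially diluted compound for binding to ASF-coated plates, 3 h at 4° C. Bound protein detected with streptavidin-peroxidase and ABTS substrate (spectrophotometric). IC50 given as mean of several measurements.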

human Gal-3 (hGal-3) = human Gal-3 (hGal-3) (Homo sapiens (Human), UniProt P17931); experiment: competitive binding assay: biotinylated hGal-3 binding to microplate-adsorbed asialofetuin (ASF)
Chain of human Gal-3 (hGal-3) (P17931 whole entry): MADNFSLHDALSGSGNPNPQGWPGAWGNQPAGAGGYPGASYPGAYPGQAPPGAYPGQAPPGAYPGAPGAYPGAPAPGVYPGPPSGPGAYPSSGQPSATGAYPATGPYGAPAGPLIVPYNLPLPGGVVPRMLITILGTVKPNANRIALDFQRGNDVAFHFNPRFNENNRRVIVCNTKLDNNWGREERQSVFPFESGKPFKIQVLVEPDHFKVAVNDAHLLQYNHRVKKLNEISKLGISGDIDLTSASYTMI
In short: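 Competition of compounds with biotinylated human Gal-3 for asialofetuin-coated plates, 3 hours at 4° C. Bound Gal-3 detected with streptavidin-peroxidase (80 ng/mL, 1 hour, 4° C) and ABTS substrate. IC50 reported as the mean of several measurements.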

[1] = Table 5, read-out: IC50 (Gal-3 inhibition)
[2] = Gal-3 inhibition, binding of biotinylated hGal-3 to ASF, mean values, read-out: IC50

`Cc1ccccc1C(S[C@@H]1O[C@H](CO)[C@H](O)[C@H](n2cc(-c3cc(F)c(F)c(F)c3)nn2)[C@H]1O)C1(O)CCOCC1` (stereo partly drawn) [Example 2.41.102.] showed an IC50 (human Gal-1 (hGal-1)) of 1610 nM and an IC50 (human Gal-3 (hGal-3); [1]) of 90 nM.
Work on `Cc1ccccc1[C@@H](S[C@@H]1O[C@H](CO)[C@H](O)[C@H](n2cc(-c3cc(F)c(F)c(F)c3)nn2)[C@H]1O)C1(O)CCOCC1` [Example 2.41.102R.] yielded an IC50 (human Gal-1 (hGal-1)) of 210 nM and an IC50 (human Gal-3 (hGal-3); [1]) of 40 nM.
Work on `Cc1ccccc1[C@H](S[C@@H]1O[C@H](CO)[C@H](O)[C@H](n2cc(-c3cc(F)c(F)c(F)c3)nn2)[C@H]1O)C1(O)CCOCC1` [Example 2.41.102S.] yielded an IC50 (human Gal-1 (hGal-1)) of 65400 nM and an IC50 (human Gal-3 (hGal-3); [1]) of 7360 nM.
`OC[C@H]1O[C@@H](SC(c2ccccc2C(F)(F)F)C2(O)CCOCC2)[C@H](O)[C@@H](n2cc(-c3cc(F)c(F)c(F)c3)nn2)[C@H]1O` (stereo partly drawn) [Example 2.41.112., (2R,3R,4S,5R,6S)-2-(Hydroxymethyl)-6-(((4-hydroxytetrahydro-2H-pyran-4-yl)(2-(trifluoromethyl)phenyl)methyl)thio)-4-(4-(3,4,5-trifluorophenyl)-1H-1,2,3-triazol-1-yl)tetrahydro-2H-pyran-3,5-diol] was tested, and the IC50 (human Gal-1 (hGal-1)) was 900 nM and the IC50 (human Gal-3 (hGal-3); [1]) was 110 nM.
Molecule `OC[C@H]1O[C@@H](S[C@H](c2ccccc2C(F)(F)F)C2(O)CCOCC2)[C@H](O)[C@@H](n2cc(-c3cc(F)c(F)c(F)c3)nn2)[C@H]1O` [Example 2.41.112R., (2R,3R,4S,5R,6S)-2-(Hydroxymethyl)-6-(((R)-(4-hydroxytetrahydro-2H-pyran-4-yl)(2-(trifluoromethyl)phenyl)methyl)thio)-4-(4-(3,4,5-trifluorophenyl)-1H-1,2,3-triazol-1-yl)tetrahydro-2H-pyran-3,5-diol] has an IC50 (human Gal-1 (hGal-1)) of 900 nM and an IC50 (human Gal-3 (hGal-3); [1]) of 80 nM.
`OC[C@H]1O[C@@H](S[C@@H](c2ccccc2C(F)(F)F)C2(O)CCOCC2)[C@H](O)[C@@H](n2cc(-c3cc(F)c(F)c(F)c3)nn2)[C@H]1O` [Example 2.41.112S., (2R,3R,4S,5R,6S)-2-(Hydroxymethyl)-6-(((S)-(4-hydroxytetrahydro-2H-pyran-4-yl)(2-(trifluoromethyl)phenyl)methyl)thio)-4-(4-(3,4,5-trifluorophenyl)-1H-1,2,3-triazol-1-yl)tetrahydro-2H-pyran-3,5-diol] gave an IC50 (human Gal-1 (hGal-1)) of 59400 nM and an IC50 (human Gal-3 (hGal-3); [1]) of 6000 nM.
`Cc1nc(C)c(C(S[C@@H]2O[C@H](CO)[C@H](O)[C@H](n3cc(-c4cc(F)c(F)c(F)c4)nn3)[C@H]2O)C2(O)CCOCC2)nc1C` (stereo partly drawn) [Example 2.41.119., (2R,3R,4S,5R,6S)-2-(Hydroxymethyl)-6-(((4-hydroxytetrahydro-2H-pyran-4-yl)(3,5,6-trimethylpyrazin-2-yl)methyl)thio)-4-(4-(3,4,5-trifluorophenyl)-1H-1,2,3-triazol-1-yl)tetrahydro-2H-pyran-3,5-diol] gave an IC50 (human Gal-1 (hGal-1)) of 20000 nM and an IC50 (human Gal-3 (hGal-3); [1]) of 160 nM.
`Cc1nc(C)c([C@@H](S[C@@H]2O[C@H](CO)[C@H](O)[C@H](n3cc(-c4cc(F)c(F)c(F)c4)nn3)[C@H]2O)C2(O)CCOCC2)nc1C` [Example 2.41.119R., (2R,3R,4S,5R,6S)-2-(Hydroxymethyl)-6-(((R)-(4-hydroxytetrahydro-2H-pyran-4-yl)(3,5,6-trimethylpyrazin-2-yl)methyl)thio)-4-(4-(3,4,5-trifluorophenyl)-1H-1,2,3-triazol-1-yl)tetrahydro-2H-pyran-3,5-diol] gave an IC50 (human Gal-1 (hGal-1)) of 490 nM and an IC50 (human Gal-3 (hGal-3); [1]) of 60 nM.
`Cc1nc(C)c([C@H](S[C@@H]2O[C@H](CO)[C@H](O)[C@H](n3cc(-c4cc(F)c(F)c(F)c4)nn3)[C@H]2O)C2(O)CCOCC2)nc1C` [Example 2.41.119S., (2R,3R,4S,5R,6S)-2-(Hydroxymethyl)-6-(((S)-(4-hydroxytetrahydro-2H-pyran-4-yl)(3,5,6-trimethylpyrazin-2-yl)methyl)thio)-4-(4-(3,4,5-trifluorophenyl)-1H-1,2,3-triazol-1-yl)tetrahydro-2H-pyran-3,5-diol] was tested, and the IC50 (human Gal-1 (hGal-1)) was 19900 nM and the IC50 (human Gal-3 (hGal-3); [1]) was 2990 nM.
Work on `CO[C@@H]1[C@@H](n2cc(-c3cc(F)c(F)c(F)c3)nn2)[C@@H](O)[C@@H](CO)O[C@H]1S[C@H](c1nocc1C)C1(O)CCOCC1` [Example 2.41.120R.I., (2R,3R,4S,5R,6S)-2-(Hydroxymethyl)-6-(((R)-(4-hydroxytetrahydro-2H-pyran-4-yl)(4-methylisoxazol-3-yl)methyl)thio)-5-methoxy-4-(4-(3,4,5-trifluorophenyl)-1H-1,2,3-triazol-1-yl)tetrahydro-2H-pyran-3-ol] yielded an IC50 (human Gal-1 (hGal-1)) of 500 nM and an IC50 (human Gal-3 (hGal-3); Table 10, 2-OMe-Gal inhibitors, read-out: IC50 (Gal-3 inhibition)) of 190 nM.
With `OC[C@H]1O[C@@H](SC(c2ncccc2C(F)(F)F)C2(O)CCOCC2)[C@H](O)[C@@H](n2cc(-c3cc(F)c(F)c(F)c3)nn2)[C@H]1O` (stereo partly drawn) [Example 2.41.125., (2R,3R,4S,5R,6S)-2-(Hydroxymethyl)-6-(((4-hydroxytetrahydro-2H-pyran-4-yl)(3-(trifluoromethyl)pyridin-2-yl)methyl)thio)-4-(4-(3,4,5-trifluorophenyl)-1H-1,2,3-triazol-1-yl)tetrahydro-2H-pyran-3,5-diol] the IC50 (human Gal-1 (hGal-1)) was 5700 nM and the IC50 (human Gal-3 (hGal-3); [1]) was 250 nM.
For `OC[C@H]1O[C@@H](S[C@H](c2ncccc2C(F)(F)F)C2(O)CCOCC2)[C@H](O)[C@@H](n2cc(-c3cc(F)c(F)c(F)c3)nn2)[C@H]1O` [Example 2.41.125R., (2R,3R,4S,5R,6S)-2-(Hydroxymethyl)-6-(((R)-(4-hydroxytetrahydro-2H-pyran-4-yl)(3-(trifluoromethyl)pyridin-2-yl)methyl)thio)-4-(4-(3,4,5-trifluorophenyl)-1H-1,2,3-triazol-1-yl)tetrahydro-2H-pyran-3,5-diol], the IC50 (human Gal-1 (hGal-1)) was 130 nM and the IC50 (human Gal-3 (hGal-3); [1]) was 30 nM.
`OC[C@H]1O[C@@H](S[C@@H](c2ncccc2C(F)(F)F)C2(O)CCOCC2)[C@H](O)[C@@H](n2cc(-c3cc(F)c(F)c(F)c3)nn2)[C@H]1O` [Example 2.41.125S., (2R,3R,4S,5R,6S)-2-(Hydroxymethyl)-6-(((S)-(4-hydroxytetrahydro-2H-pyran-4-yl)(3-(trifluoromethyl)pyridin-2-yl)methyl)thio)-4-(4-(3,4,5-trifluorophenyl)-1H-1,2,3-triazol-1-yl)tetrahydro-2H-pyran-3,5-diol] was tested, and the IC50 (human Gal-1 (hGal-1)) was 7470 nM and the IC50 (human Gal-3 (hGal-3); [1]) was 1830 nM.
In the case of `Cc1cccnc1C(S[C@@H]1O[C@H](CO)[C@H](O)[C@H](n2cc(-c3cc(F)c(F)c(F)c3)nn2)[C@H]1O)C1(O)CCOCC1` (stereo partly drawn) [Example 2.41.126., (2R,3R,4S,5R,6S)-2-(Hydroxymethyl)-6-(((4-hydroxytetrahydro-2H-pyran-4-yl)(3-methylpyridin-2-yl)methyl)thio)-4-(4-(3,4,5-trifluorophenyl)-1H-1,2,3-triazol-1-yl)tetrahydro-2H-pyran-3,5-diol], the IC50 (human Gal-1 (hGal-1)) is reported as 800 nM and the IC50 (human Gal-3 (hGal-3); [2]) is reported as 80 nM.
`Cc1cccnc1[C@@H](S[C@@H]1O[C@H](CO)[C@H](O)[C@H](n2cc(-c3cc(F)c(F)c(F)c3)nn2)[C@H]1O)C1(O)CCOCC1` [Example 2.41.126R., (2R,3R,4S,5R,6S)-2-(Hydroxymethyl)-6-(((R)-(4-hydroxytetrahydro-2H-pyran-4-yl)(3-methylpyridin-2-yl)methyl)thio)-4-(4-(3,4,5-trifluorophenyl)-1H-1,2,3-triazol-1-yl)tetrahydro-2H-pyran-3,5-diol] gave an IC50 (human Gal-1 (hGal-1)) of 700 nM and an IC50 (human Gal-3 (hGal-3); [2]) of 30 nM.
